Data as given in ChEMBL document CHEMBL3784969, “Pharmacokinetics of flutamide in patients with renal insufficiency” (Br J Clin Pharmacol, 1999).

Assay: Plasma protein binding in healthy geriatric volunteer by equilibrium dialysis method
Type: ADME, cell-free
Conditions: human, read-out: PPB

Compound: CC(C)(O)C(=O)Nc1ccc([N+](=O)[O-])c(C(F)(F)F)c1 [HYDROXYFLUTAMIDE]
- fraction unbound: < 0.06
